Source: PMC11167047 (Cell Death Discovery, 2024)

What was measured:
Experiment in all cases: kinome screen (33PanQinase)
Format in all cases: biochemical
EEF2K = target: T1, EEF2K (Homo sapiens, UniProt O00418)
T1 construct: purchased Reaction Biology Europe GmbH (formerly ProQinase)
T1 sequence (O00418 1-725): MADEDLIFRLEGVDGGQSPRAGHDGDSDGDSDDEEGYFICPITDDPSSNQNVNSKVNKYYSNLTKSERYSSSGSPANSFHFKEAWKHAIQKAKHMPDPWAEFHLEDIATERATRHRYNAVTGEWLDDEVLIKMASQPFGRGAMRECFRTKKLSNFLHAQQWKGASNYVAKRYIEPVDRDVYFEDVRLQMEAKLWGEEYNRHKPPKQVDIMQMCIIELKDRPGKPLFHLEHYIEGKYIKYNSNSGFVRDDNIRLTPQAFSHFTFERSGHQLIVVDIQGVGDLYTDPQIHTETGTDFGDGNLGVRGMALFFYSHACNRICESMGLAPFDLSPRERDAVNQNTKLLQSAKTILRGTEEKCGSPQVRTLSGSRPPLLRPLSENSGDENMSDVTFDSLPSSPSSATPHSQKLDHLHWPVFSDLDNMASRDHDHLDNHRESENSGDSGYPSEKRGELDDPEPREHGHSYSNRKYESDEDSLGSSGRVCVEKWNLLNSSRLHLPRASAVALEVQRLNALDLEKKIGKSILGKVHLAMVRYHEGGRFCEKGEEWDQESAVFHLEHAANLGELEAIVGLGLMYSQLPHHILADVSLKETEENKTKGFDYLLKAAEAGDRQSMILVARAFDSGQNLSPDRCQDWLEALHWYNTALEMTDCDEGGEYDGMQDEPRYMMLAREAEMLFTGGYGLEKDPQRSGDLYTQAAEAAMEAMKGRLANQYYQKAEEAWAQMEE
Procedure: (§1) The Kinome Screening was performed by Reaction Biology Europe GmbH (http://reactionbiology.com; Freiburg i. Br., Germany).

HIPK1 = target: T2, HIPK1 (Homo sapiens, UniProt Q86Z02)
T2 construct: purchased Reaction Biology Europe GmbH (formerly ProQinase)
Procedure: as §1

GRK6 = target: T3, GRK6 (Homo sapiens, UniProt P43250)
T3 construct: purchased Reaction Biology Europe GmbH (formerly ProQinase)
Procedure: as §1

KIT = target: T4, KIT (Homo sapiens, UniProt P10721)
T4 construct: purchased Reaction Biology Europe GmbH (formerly ProQinase)
Procedure: as §1

JAK1 = target: T5, JAK1 (Homo sapiens, UniProt P23458)
T5 construct: purchased Reaction Biology Europe GmbH (formerly ProQinase)
Procedure: as §1

CDK4/CycD3 = target: T6, CDK4/CycD3 (Homo sapiens, UniProt P11802)
T6 construct: purchased Reaction Biology Europe GmbH (formerly ProQinase)
Procedure: as §1

CAMK2D = target: T7, CAMK2D (Homo sapiens, UniProt Q13557)
T7 construct: purchased Reaction Biology Europe GmbH (formerly ProQinase)
Procedure: as §1

MYLK2 = target: T8, MYLK2 (Homo sapiens, UniProt Q9H1R3)
T8 construct: purchased Reaction Biology Europe GmbH (formerly ProQinase)
Procedure: as §1

STK33 = target: T9, STK33 (Homo sapiens, UniProt Q9BYT3)
T9 construct: purchased Reaction Biology Europe GmbH (formerly ProQinase)
Procedure: as §1

ABL2 = target: T10, ABL2 (Homo sapiens, UniProt P42684)
T10 construct: purchased Reaction Biology Europe GmbH (formerly ProQinase)
Procedure: as §1

PDGFRα = target: T11, PDGFRα (Homo sapiens, UniProt P16234)
T11 construct: purchased Reaction Biology Europe GmbH (formerly ProQinase)
Procedure: as §1

MATK = target: T12, MATK (Homo sapiens, UniProt P42679)
T12 construct: purchased Reaction Biology Europe GmbH (formerly ProQinase)
T12 sequence (P42679 1-507): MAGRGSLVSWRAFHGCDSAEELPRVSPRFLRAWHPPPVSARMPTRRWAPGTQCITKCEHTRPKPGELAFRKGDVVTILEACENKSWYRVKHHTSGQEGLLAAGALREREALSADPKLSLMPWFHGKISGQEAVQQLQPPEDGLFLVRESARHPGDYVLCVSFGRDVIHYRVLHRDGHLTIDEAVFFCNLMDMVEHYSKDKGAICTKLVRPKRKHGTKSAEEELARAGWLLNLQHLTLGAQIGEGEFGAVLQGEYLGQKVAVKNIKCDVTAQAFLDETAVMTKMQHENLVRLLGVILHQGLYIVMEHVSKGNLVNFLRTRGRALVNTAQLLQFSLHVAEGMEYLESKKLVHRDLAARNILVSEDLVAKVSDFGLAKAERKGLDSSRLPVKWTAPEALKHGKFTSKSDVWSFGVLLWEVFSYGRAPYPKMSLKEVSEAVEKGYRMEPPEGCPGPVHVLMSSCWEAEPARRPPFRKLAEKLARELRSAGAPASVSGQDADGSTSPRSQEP
Procedure: as §1

MEK1 = target: T13, MEK1 (Homo sapiens, UniProt Q02750)
T13 construct: purchased Reaction Biology Europe GmbH (formerly ProQinase)
Procedure: as §1

PRKX = target: T14, PRKX (Homo sapiens, UniProt P51817)
T14 construct: purchased Reaction Biology Europe GmbH (formerly ProQinase)
T14 sequence (P51817 1-358): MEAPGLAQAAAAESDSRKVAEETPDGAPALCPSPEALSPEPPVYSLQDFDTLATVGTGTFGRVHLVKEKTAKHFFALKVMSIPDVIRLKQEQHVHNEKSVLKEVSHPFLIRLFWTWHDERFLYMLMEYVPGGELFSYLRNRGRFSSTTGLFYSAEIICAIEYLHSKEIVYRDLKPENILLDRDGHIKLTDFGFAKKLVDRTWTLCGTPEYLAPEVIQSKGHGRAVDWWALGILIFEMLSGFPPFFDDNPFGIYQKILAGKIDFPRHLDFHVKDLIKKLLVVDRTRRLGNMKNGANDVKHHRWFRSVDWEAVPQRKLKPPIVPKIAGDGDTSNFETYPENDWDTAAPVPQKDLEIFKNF
Procedure: as §1

NEK7 = target: T15, NEK7 (Homo sapiens, UniProt Q8TDX7)
T15 construct: purchased Reaction Biology Europe GmbH (formerly ProQinase)
Procedure: as §1

T3 sequence (P43250 whole entry): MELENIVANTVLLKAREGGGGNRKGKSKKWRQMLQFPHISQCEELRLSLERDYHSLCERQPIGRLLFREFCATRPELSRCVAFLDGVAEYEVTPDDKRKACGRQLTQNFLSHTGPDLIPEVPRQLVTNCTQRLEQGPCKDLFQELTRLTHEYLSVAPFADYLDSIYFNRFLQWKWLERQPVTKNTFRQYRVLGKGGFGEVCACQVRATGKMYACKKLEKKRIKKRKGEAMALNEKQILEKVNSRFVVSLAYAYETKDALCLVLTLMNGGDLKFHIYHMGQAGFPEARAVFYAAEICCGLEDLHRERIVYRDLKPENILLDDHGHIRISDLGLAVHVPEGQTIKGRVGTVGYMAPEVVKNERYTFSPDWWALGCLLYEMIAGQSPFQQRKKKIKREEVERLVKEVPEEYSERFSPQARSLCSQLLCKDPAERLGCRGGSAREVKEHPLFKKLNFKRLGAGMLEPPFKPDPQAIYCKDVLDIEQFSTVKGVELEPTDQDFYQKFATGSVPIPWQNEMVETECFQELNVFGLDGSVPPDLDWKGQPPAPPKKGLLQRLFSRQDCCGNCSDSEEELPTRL
T10 sequence (P42684 whole entry): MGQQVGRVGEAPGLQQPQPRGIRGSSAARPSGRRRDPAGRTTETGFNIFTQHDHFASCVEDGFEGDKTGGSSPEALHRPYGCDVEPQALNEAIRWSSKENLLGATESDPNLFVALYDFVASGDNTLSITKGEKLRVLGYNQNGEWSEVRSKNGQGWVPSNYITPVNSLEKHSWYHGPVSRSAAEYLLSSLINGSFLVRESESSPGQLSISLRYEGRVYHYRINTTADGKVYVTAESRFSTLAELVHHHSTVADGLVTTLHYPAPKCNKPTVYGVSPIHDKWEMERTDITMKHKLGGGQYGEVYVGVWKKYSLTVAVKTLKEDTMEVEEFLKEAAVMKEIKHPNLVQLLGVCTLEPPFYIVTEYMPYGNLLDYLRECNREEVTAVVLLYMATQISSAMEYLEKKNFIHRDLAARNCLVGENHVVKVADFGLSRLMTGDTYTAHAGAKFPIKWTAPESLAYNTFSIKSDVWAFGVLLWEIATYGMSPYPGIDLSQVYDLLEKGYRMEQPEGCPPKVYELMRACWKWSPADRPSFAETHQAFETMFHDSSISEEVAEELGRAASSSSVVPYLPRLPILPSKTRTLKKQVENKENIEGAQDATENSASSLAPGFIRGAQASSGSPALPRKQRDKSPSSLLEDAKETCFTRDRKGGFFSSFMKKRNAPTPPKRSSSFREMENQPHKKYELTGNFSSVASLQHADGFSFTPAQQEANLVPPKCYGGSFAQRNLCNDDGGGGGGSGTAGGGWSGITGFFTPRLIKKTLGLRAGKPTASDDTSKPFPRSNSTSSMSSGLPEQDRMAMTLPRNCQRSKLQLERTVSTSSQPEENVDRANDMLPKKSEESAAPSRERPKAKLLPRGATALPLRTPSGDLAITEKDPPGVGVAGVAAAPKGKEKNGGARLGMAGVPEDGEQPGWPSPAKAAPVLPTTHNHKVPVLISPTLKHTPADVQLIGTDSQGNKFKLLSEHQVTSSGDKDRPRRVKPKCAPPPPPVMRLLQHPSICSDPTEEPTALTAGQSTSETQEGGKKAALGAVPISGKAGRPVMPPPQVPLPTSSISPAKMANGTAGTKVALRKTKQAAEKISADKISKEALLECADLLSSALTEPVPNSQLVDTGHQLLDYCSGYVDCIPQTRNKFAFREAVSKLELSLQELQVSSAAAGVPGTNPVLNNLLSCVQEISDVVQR
T2 sequence (Q86Z02 whole entry): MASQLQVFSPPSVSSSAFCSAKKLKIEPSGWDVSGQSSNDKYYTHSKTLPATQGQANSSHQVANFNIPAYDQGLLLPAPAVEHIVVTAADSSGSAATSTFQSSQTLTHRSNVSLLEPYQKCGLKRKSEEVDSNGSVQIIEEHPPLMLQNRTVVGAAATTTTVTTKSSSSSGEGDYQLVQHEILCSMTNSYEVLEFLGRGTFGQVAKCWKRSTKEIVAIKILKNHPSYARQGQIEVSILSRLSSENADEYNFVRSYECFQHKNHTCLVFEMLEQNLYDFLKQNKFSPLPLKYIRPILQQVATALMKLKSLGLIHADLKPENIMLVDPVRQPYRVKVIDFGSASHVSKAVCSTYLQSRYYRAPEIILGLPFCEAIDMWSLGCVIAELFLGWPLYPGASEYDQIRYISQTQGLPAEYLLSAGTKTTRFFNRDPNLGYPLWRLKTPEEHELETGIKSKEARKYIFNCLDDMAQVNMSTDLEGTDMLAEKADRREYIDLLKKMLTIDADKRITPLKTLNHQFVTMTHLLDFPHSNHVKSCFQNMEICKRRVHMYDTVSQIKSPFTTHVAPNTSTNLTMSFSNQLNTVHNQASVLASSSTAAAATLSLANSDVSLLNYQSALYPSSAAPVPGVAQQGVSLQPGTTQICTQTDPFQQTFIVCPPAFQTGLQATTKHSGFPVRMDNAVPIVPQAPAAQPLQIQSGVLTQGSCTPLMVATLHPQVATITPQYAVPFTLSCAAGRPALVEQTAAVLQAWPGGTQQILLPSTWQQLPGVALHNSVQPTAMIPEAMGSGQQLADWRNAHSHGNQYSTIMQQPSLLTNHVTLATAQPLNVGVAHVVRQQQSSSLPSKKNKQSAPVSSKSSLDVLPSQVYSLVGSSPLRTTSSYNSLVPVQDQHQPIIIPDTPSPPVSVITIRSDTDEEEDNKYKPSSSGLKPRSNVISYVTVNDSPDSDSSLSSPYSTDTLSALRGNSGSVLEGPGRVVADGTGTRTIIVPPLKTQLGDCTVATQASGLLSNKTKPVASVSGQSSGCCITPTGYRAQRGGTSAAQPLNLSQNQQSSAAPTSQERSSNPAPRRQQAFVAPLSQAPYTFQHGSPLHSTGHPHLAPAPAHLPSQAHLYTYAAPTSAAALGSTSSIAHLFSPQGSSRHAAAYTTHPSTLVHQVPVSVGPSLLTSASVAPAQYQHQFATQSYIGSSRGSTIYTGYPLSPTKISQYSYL
T7 sequence (Q13557 whole entry): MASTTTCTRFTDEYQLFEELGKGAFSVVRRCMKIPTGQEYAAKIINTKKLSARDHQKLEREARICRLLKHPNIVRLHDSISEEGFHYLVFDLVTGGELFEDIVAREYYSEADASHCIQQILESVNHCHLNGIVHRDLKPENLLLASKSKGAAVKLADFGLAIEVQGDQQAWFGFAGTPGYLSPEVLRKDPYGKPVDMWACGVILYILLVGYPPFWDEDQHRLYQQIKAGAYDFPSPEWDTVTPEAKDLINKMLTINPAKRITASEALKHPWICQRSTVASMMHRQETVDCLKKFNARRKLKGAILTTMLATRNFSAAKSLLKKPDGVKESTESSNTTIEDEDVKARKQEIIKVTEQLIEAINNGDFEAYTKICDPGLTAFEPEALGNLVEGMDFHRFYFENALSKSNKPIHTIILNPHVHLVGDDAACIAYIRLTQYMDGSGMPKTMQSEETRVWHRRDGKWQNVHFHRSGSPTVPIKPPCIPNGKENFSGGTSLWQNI
T11 sequence (P16234 24-1089): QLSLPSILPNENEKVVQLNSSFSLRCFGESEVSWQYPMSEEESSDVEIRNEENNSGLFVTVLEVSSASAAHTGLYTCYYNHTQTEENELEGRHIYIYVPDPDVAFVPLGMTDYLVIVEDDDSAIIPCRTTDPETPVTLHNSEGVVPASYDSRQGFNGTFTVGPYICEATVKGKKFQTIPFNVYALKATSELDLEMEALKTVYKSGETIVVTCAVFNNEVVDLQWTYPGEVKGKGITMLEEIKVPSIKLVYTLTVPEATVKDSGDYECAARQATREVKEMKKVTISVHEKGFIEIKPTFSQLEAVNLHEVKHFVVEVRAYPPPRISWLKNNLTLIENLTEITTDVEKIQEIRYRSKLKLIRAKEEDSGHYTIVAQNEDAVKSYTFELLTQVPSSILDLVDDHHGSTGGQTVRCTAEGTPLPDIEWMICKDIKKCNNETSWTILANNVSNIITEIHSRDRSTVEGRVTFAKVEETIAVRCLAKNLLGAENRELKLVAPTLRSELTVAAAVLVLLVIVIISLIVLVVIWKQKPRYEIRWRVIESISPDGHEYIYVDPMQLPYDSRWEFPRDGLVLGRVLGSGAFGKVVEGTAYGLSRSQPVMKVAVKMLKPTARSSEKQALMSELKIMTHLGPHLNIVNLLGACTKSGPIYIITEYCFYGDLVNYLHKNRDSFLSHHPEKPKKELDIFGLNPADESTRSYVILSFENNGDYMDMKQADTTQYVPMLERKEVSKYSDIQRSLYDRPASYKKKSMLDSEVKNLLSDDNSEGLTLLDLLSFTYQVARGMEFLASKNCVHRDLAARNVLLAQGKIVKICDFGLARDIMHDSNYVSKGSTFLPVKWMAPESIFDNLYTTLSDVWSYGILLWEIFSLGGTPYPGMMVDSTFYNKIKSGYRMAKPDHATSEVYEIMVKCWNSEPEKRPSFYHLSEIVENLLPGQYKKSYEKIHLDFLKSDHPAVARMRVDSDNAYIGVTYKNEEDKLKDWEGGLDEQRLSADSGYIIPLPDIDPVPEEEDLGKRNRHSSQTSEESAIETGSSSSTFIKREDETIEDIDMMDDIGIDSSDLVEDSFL
T15 sequence (Q8TDX7 whole entry): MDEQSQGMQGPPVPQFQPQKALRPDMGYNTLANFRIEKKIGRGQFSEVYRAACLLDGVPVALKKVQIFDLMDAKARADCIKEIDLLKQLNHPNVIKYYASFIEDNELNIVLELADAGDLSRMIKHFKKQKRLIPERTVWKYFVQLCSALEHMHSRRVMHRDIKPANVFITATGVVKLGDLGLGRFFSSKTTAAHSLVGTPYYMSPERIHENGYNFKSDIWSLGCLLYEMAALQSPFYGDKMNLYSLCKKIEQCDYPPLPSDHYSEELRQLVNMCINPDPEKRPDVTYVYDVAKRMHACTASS

| Compound | residual kinase activity (EEF2K; 0.3 µM) | residual kinase activity (HIPK1; 0.3 µM) | residual kinase activity (GRK6; 0.3 µM) | residual kinase activity (KIT; 0.3 µM) | residual kinase activity (JAK1; 0.3 µM) | residual kinase activity (CDK4/CycD3; 0.3 µM) | residual kinase activity (CAMK2D; 0.3 µM) | residual kinase activity (MYLK2; 0.3 µM) | residual kinase activity (STK33; 0.3 µM) | residual kinase activity (ABL2; 0.3 µM) | residual kinase activity (PDGFRα; 0.3 µM) | residual kinase activity (MATK; 0.3 µM) | residual kinase activity (MEK1; 0.3 µM) | residual kinase activity (PRKX; 0.3 µM) | residual kinase activity (NEK7; 0.3 µM) | other results |
| --- | --- | --- | --- | --- | --- | --- | --- | --- | --- | --- | --- | --- | --- | --- | --- | --- |
| c1ccc(CNc2cc(-c3c[nH]c4ncccc34)ccn2)cc1 [meriolin 36] | 84 % of control | 47 % of control | 96 % of control | 89 % of control | 58 % of control | 34 % of control | 16 % of control | 61 % of control | 41 % of control | 56 % of control | 25 % of control | 134 % of control | 35 % of control | 15 % of control | 103 % of control | residual kinase activity (EEF2K; 3 µM): 97 % of control; residual kinase activity (HIPK1; 3 µM): 10 % of control; residual kinase activity (GRK6; 3 µM): 54 % of control; residual kinase activity (KIT; 3 µM): 46 % of control; residual kinase activity (JAK1; 3 µM): 25 % of control; residual kinase activity (CDK4/CycD3; 3 µM): 6 % of control; residual kinase activity (CAMK2D; 3 µM): 1 % of control; residual kinase activity (MYLK2; 3 µM): 26 % of control; residual kinase activity (STK33; 3 µM): 14 % of control; residual kinase activity (ABL2; 3 µM): 18 % of control; residual kinase activity (PDGFRα; 3 µM): 8 % of control; residual kinase activity (MATK; 3 µM): 94 % of control; residual kinase activity (MEK1; 3 µM): 6 % of control; residual kinase activity (PRKX; 3 µM): -1 % of control; residual kinase activity (NEK7; 3 µM): 107 % of control |
| COc1ccnc2[nH]cc(-c3cc(N)nc(N)c3)c12 [meriolin 16] | 89 % of control | 10 % of control | 93 % of control | 96 % of control | 86 % of control | 51 % of control | 64 % of control | 32 % of control | 43 % of control | 91 % of control | 60 % of control | 90 % of control | 102 % of control | 3 % of control | 96 % of control | residual kinase activity (EEF2K; 0.03 µM): 96 % of control; residual kinase activity (HIPK1; 0.03 µM): 49 % of control; residual kinase activity (GRK6; 0.03 µM): 98 % of control; residual kinase activity (KIT; 0.03 µM): 70 % of control; residual kinase activity (JAK1; 0.03 µM): 78 % of control; residual kinase activity (CDK4/CycD3; 0.03 µM): 95 % of control; residual kinase activity (CAMK2D; 0.03 µM): 99 % of control; residual kinase activity (MYLK2; 0.03 µM): 65 % of control; residual kinase activity (STK33; 0.03 µM): 73 % of control; residual kinase activity (ABL2; 0.03 µM): 95 % of control; residual kinase activity (PDGFRα; 0.03 µM): 89 % of control; residual kinase activity (MATK; 0.03 µM): 107 % of control; residual kinase activity (MEK1; 0.03 µM): 108 % of control; residual kinase activity (PRKX; 0.03 µM): 54 % of control; residual kinase activity (NEK7; 0.03 µM): 111 % of control |
